For data set [1], the target named is T1, Tyrosine-protein phosphatase non-receptor type 1 (Homo sapiens) (UniProt P18031).
T1 sequence (whole entry): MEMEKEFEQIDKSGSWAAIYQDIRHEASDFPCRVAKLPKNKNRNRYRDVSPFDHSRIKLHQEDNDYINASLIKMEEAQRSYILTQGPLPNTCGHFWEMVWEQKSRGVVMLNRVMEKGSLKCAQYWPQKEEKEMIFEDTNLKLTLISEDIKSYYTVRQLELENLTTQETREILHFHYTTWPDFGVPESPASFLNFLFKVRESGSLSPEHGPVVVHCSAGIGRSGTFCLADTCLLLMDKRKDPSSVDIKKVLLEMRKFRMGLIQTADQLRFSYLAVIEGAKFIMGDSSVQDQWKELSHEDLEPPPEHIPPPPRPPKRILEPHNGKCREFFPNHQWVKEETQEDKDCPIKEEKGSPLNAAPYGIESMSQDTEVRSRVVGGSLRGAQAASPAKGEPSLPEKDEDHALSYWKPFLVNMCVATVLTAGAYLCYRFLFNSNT
Kind of data set: Inhibition of recombinant human GST-tagged PTP1B at 10 uM using p-NPP as substrate after 10 mins by spectrophotometric method.

Another data set relates to Peritoneal macrophage. Kind of data set: Anti-inflammatory activity in C57BL6J mouse peritoneal macrophages assessed as inhibition of LPS-induced TNF-alpha secretion at 10 uM after 24 hrs. In kind it is functional, cell-based.
The subject of a further data set is A2780. Kind of data set: Cytotoxicity against human A2780 cells after 24 hrs by MTT assay. In kind it is functional, cell-based.
Another data set concerns HepG2. The data set is described as follows: Protection against acetaminophen-induced cell injury in human HepG2 cells at 10 uM after 24 hrs by MTT assay. In kind it is functional, cell-based. Background: Tetrazolium dyes change colour on reduction, which living cells bring about.
The next data set deals with HCT-8. The data set is described as follows: Cytotoxicity against human HCT8 cells after 24 hrs by MTT assay. In kind it is functional, cell-based.
Another data set is filed under the species Homo sapiens. Kind of data set: Selectivity ratio of IC50 for inhibition of CE1 in human liver microsomes to IC50 for inhibition of CE2 in human liver microsomes.
The target of data set [2] is T2, Cocaine esterase (Homo sapiens, UniProt O00748).
T2 sequence (O00748 whole entry): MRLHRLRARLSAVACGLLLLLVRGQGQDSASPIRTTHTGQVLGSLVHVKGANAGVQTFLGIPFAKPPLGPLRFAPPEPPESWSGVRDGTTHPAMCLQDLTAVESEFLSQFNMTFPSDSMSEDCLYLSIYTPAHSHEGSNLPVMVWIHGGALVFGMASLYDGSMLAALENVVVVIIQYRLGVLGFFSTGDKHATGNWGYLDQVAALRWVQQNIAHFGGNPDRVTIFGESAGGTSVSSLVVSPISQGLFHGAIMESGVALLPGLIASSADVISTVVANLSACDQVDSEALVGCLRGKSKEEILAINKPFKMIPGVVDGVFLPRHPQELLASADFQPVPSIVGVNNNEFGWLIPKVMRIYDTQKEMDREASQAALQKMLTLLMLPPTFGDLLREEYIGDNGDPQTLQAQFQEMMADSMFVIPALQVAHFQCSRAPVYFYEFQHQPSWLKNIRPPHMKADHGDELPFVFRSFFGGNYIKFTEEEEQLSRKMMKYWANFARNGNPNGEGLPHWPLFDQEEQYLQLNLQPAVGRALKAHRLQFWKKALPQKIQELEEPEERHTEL
Kind of data set: Inhibition of CE2 in human liver microsomes using fluorescein diacetate as substrate preincubated for 10 mins followed by substrate addition measured after 20 mins by […] assay. For orientation: Liver microsomes are vesicles of endoplasmic reticulum, rich in cytochrome P450 enzymes.

The next data set concerns the target T3, Liver carboxylesterase 1 (Homo sapiens, UniProt P23141).
T3 sequence (P23141 whole entry): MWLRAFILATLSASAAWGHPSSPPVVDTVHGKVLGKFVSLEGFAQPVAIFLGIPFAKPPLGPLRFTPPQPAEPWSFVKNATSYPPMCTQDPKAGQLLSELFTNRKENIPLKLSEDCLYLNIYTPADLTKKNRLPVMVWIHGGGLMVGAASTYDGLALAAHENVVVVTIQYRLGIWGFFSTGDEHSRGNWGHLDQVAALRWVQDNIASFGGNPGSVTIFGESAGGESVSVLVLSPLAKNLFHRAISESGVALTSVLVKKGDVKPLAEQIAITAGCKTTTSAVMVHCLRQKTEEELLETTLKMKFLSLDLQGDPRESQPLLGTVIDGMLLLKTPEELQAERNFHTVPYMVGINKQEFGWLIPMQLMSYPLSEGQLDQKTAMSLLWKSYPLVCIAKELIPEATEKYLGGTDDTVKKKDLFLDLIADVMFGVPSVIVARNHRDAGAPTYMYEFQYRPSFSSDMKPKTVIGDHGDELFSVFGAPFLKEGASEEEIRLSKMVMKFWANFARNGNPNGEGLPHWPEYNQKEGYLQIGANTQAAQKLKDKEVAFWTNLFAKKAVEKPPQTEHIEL
The data set is described as follows: Inhibition of CE1 in human liver microsomes using D-Luciferin methyl ester as substrate preincubated for 10 mins followed by substrate addition measured after 10 mins by luminescence assay.

In the next data set the test system is BGC-823. The data set is described as follows: Cytotoxicity against human BGC823 cells after 24 hrs by MTT assay. Type of data set: functional, cell-based.
For a further data set, the system named is A549. The data set is described as follows: Cytotoxicity against human A549 cells after 24 hrs by MTT assay. Type of data set: functional, cell-based.
Another data set concerns Bel-7402. Kind of data set: Cytotoxicity against human Bel7402 cells after 24 hrs by MTT assay. Type of data set: functional, cell-based.
Data set [3] deals with Escherichia coli. Kind of data set: Antibacterial activity against Escherichia coli ATCC 25922 after 24 hrs by broth microdilution method. As to conditions: ATCC 25922, 24 h. In kind it is functional.
For data set [4], the target named is T2, Cocaine esterase. The data set is described as follows: Competitive inhibition of CE2 in human liver microsomes using fluorescein diacetate as substrate preincubated for 10 mins followed by substrate addition measured after 20 mins by Lineweaver-Burk plot analysis.
Data set [5] addresses T2, Cocaine esterase. The data set is described as follows: Reversible inhibition of CE2 in human liver microsomes up to 120 uM using fluorescein diacetate as substrate preincubated for 10 mins followed by substrate addition measured after 20 mins by […] assay.
Data set [6] concerns the target T4, CE2 (carboxylesterase 2; cocaine esterase) (Homo sapiens, UniProt O00748).
T4 sequence (O00748 whole entry): T2 sequence (O00748 whole entry)
Kind of data set: Potency index, ratio of loperamide IC50 to compound IC50 for inhibition of CE2 in human liver microsomes. As to conditions: read-out: Ratio IC50.

Data set [7] deals with Mycolicibacterium smegmatis. Kind of data set: Antibacterial activity against Mycobacterium smegmatis MC2 155 ATCC […] after 24 hrs by broth microdilution method. In kind it is functional.
Data set [8] has as its system Staphylococcus aureus. The data set is described as follows: Antibacterial activity against Staphylococcus aureus ATCC 25923 after 24 hrs by broth microdilution method. Type of data set: functional. To be noted: ATCC 25923, 24 h.
Data set [9] relates to Staphylococcus epidermidis. Kind of data set: Antibacterial activity against Staphylococcus epidermidis ATCC 12228 after 24 hrs by broth microdilution method. As to conditions: ATCC 12228, 24 h. In kind it is functional. Background: Dilution methods test growth across graded concentrations, often in twofold steps.
The subject of a further data set is Candida albicans. The data set is described as follows: Anti-fungal activity against Candida albicans at 30 ug/disk. Type of data set: functional.
In data set [10] the test system is Staphylococcus aureus. Kind of data set: Antibacterial activity against Staphylococcus aureus ATCC 25923 at 30 ug/disk. Type of data set: functional.
Data set [11] concerns Escherichia coli. Kind of data set: Antibacterial activity against Escherichia coli ATCC 25922 at 30 ug/disk. Type of data set: functional.

Converted amounts (≈) assume the structure as drawn. The source made the active and inactive calls. The rule behind the calls is not given here.

The term IC50 denotes the concentration needed to halve the response being measured. The low end stands for inhibition by little substance, the high end for a need for much substance. With `CCCCCCCC[C@@H]1OC(=O)c2c(O)cccc21` [PAECILOCIN A], the inhibition result (in [1]; with Peritoneal macrophage) was “inactive” in each case. Further, the outcome in the data set with A2780, with HepG2, in the data set with HCT-8, with BGC-823, in the data set on A549 and in the data set with Bel-7402 was inactive. The Ratio IC50 in the data set filed under Homo sapiens was more than 4.29. Further, the IC50 against Cocaine esterase [2] is 23.3 µM; against Liver carboxylesterase 1 it was more than 100 µM.
One may read the MIC as the lowest concentration that inhibits growth of the organism. A higher MIC goes with a less susceptible organism. As usually defined, the Ki is the equilibrium dissociation constant of an inhibitor or competing ligand from its target. In the case of `CCCCCCCCC(=O)c1cccc(O)c1-c1cc2c(C(=O)CCCCCCCC)cccc2o1`, the MIC (in the data set with Escherichia coli [3]; in data set [7]; with Staphylococcus aureus [8]; in data set [9]) was more than 128 µg/mL throughout. At Cocaine esterase [4], this molecule gave a Ki of 2.34 µM. In addition, the inhibition entry (in [1]; with Peritoneal macrophage) was “inactive” in each case. For the same molecule, the result in the data set on A2780, in the data set on HepG2, in the data set on HCT-8, with BGC-823, in the data set with A549 and in the data set with Bel-7402 was inactive. In addition, the “inhibition (INH)” value on Cocaine esterase [5] is given as “Active”. Moreover, the selectivity ratio in [6] amounted to 2. Further, the Ratio IC50 in the data set listed under Homo sapiens is more than 49.8. Also, the values for the IC50 against Cocaine esterase [2] and against Liver carboxylesterase 1 were 2.01 µM and more than 100 µM, respectively.
Regarding `C[C@@H]1[C@H](O)[C@@H](C)/C=C/C=C/C=C/C=C/C=C/C=C/C=C/[C@H](O[C@@H]2O[C@H](C)[C@@H](O)[C@H](N)[C@@H]2O)C[C@@H]2O[C@](O)(C[C@@H](O)C[C@@H](O)[C@H](O)CC[C@@H](O)C[C@@H](O)CC(=O)O[C@H]1C)C[C@H](O)[C@H]2C(=O)O` [AMPHOTERICIN B], in the data set on Candida albicans (read-out: DIZ), the zone of inhibition at 30 µg/disc is more than 20 mm. Further, the “diameter of the inhibition zone (DIZ)” value with Staphylococcus aureus [10] and with Escherichia coli [11] was “inactive” in each case.
For the molecule `CCCCCCCCCc1cccc(O)c1C=O`, the MIC with Escherichia coli [3] amounted to 32 µg/mL (≈ 129 µM); against Staphylococcus aureus [8], 64 µg/mL (≈ 258 µM). The inhibition result (in data set [1]; in the data set on Peritoneal macrophage) was “inactive” each time. Moreover, the result with A2780, in the data set with HepG2, in the data set with HCT-8, in the data set on BGC-823, in the data set on A549 and in the data set with Bel-7402 was inactive.
In the case of `CCCCCCC/C=C1\OC(=O)c2c(O)cccc21`, the MIC (against Escherichia coli [3]; in [7]; in the data set on Staphylococcus aureus [8]; in data set [9]) was more than 128 µg/mL throughout. Further, the inhibition result (in data set [1]; with Peritoneal macrophage) was “inactive” in each case. Besides, the result in the data set on A2780, in the data set on HepG2, in the data set with HCT-8, with BGC-823, with A549 and in the data set with Bel-7402 was inactive.
As to `C[C@H]1COc2c(N3CCN(C)CC3)c(F)cc3c(=O)c(C(=O)O)cn1c23.C[C@H]1COc2c(N3CCN(C)CC3)c(F)cc3c(=O)c(C(=O)O)cn1c23.O` [LEVOFLOXACIN], in the data set on Staphylococcus aureus [8], the MIC came to 0.12 µg/mL.
Turning to `O=[N+]([O-])c1ccc(OP(=O)(O)Oc2ccc([N+](=O)[O-])cc2)cc1`, at Liver carboxylesterase 1, half-maximal inhibition (IC50) required 0.21 µM.
In the case of `CC1(C)S[C@@H]2[C@H](NC(=O)[C@H](N)c3ccccc3)C(=O)N2[C@H]1C(=O)O` [AMPICILLIN], the “diameter of the inhibition zone (DIZ)” value in the data set with Candida albicans was “inactive”. The zone of inhibition at 30 µg/disc in the data set with Staphylococcus aureus [10] (read-out: DIZ) was more than 20 mm; in the data set on Escherichia coli [11] (read-out: DIZ) it was 16 to 20 mm.

For the origin of these results see ChEMBL document CHEMBL4145491, “Bysspectin A, an unusual octaketide dimer and the precursor derivatives from the endophytic fungus Byssochlamys spectabilis IMM0002 and their biological activities” (Eur J Med Chem, 2018).
